Several values for one entry are separate records, joined by “and”; a condition that tells them apart may be missing. Identical values can stand only once. Like-named read-outs stand apart in the source and are kept apart here.
Legend:
[1] = test system: human T-cell acute lymphoblastic leukemia (T-ALL) cell line, DND-41; assay: Antitumor efficacy against advanced DND-41 tumors implanted in SCID mice; format: in vivo; conditions: days 18, 21, 24, 27; for TFS = tumor free survivors: day 160; for T-C = tumor growth delay: median time to reach 750 mg
Method: This efficacy may be quantified, for example, by the log10 cell kill, which is determined according to the following formula:
log10 cell kill=T−C (days)/3.32×Td
in which T−C represents the tumor growth delay, which is the median time in days for the tumors of the treated group (T) and the tumors of the control group (C) to reach a predetermined value (1 g for example), and Td represents the time in days needed for the volume of the tumor to double in the control animals [T. H. Corbett et al., Cancer, 40: 2660-2680 (1977); F. M. Schabel et al., Cancer Drug Development, Part B, Methods in Cancer Research, 17: 3-51, New York, Academic Press Inc. (1979)]. A product is considered to be active if log10 cell kill is greater than or equal to 0.7. A product is considered to be very active if log10 cell kill is greater than 2.8.
The tumors are measured 1 to 5 times a week, depending on the tumor doubling time, until the tumor reaches approximately 2 g, or until the animal dies (if this occurs before the tumor reaches 2 g). The animals are necropsied immediately after euthanasia or death.
Tumor doubling time=3.4 days.

[2] = days 18, 21, 24, 27; for BWC = body weight change: day in parentheses in cell
Method: The animals subjected to the experiment, generally mice, are subcutaneously grafted bilaterally with 30 to 60 mg of a tumor fragment on day 0. The animals bearing tumors are randomized based on their tumor size before being subjected to the various treatments and controls. Chemotherapy begins when tumors have reached a predetermined size after grafting, depending on the type of tumor, and the animals are observed every day. […] The groups are then weighed once or twice a week until the end of the trial.
The selected tumor model was a transplantable human T-cell acute lymphoblastic leukemia (T-ALL) cell line, DND-41, implanted in SCID mice.
Hu38SB19 was formulated in phosphate buffer saline, without Ca^2+ and Mg^2+, pH7.4. Hu38SB19 was administered intravenously on days 18, 21, 24, 27 after tumor implantation.

[3] = Palmo Ara-C 22.3 mg/kg/inj SC (total 89.2)
[4] = Palmo Ara-C 36.0 mg/kg/inj SC (total 144.0)
[5] = Palmo Ara-C 58.0 mg/kg/inj SC (total 232.0)
[6] = hu38SB19 40.0 mg/kg/inj IV (total 160.0)

With `CCCCCCCCCCCCCCCC(=O)Nc1ccn([C@@H]2O[C@H](CO)[C@@H](O)[C@@H]2O)c(=O)n1` [Palmo Ara-C] the “comment (activity class)” value [1, 3] was “Active”, the log10 cell kill [1, 3] was 2.0 and the “TFS = tumor free survivors” value [1, 3] was 0/6. For the same compound, the “T-C = tumor growth delay” value [1, 3] was 22.1 days, the log10 cell kill [1, 4] was 4.3 and the “TFS = tumor free survivors” value [1, 4] was “no TFS and 0/6”. The “T-C = tumor growth delay” value [1, 4] was 48.6 days, the log10 cell kill [1, 5] was 5.4 and the “comment (activity class)” value ([1]; Palmo Ara-C 58.0 mg/kg/inj SC (total 232.0), HNTD) was “HNTD—highly active”. The “TFS = tumor free survivors” value [1, 5] was 3/6, the “T-C = tumor growth delay” value [1, 5] was 60.5 days and the “BWC = body weight change” value [2, 3] was −0.5 (32). The “BWC = body weight change” value [2, 4] was −4.6 (30), the “BWC = body weight change” value [2, 5] was −6.1 (31) and the “BWC = body weight change” value ([2]; Palmo Ara-C 96.3 mg/kg/inj SC (total 385.2)) was −26.6 (31). The “highest nontoxic dose (HNTD)” value ([2]; Palmo Ara-C alone, SC) was 58.0 mg/kg/inj.

For “hu38SB19: humanized 38SB19 anti-CD38 antibody; VH SEQ ID NO: 66, VL chosen from SEQ ID NOS: 62 and 64”, the log10 cell kill [1, 6] was 0.5, the “TFS = tumor free survivors” value [1, 6] was 0/6 and the “comment (activity class)” value ([1]; hu38SB19 40.0 mg/kg/inj IV (total 160.0), highest dose tested, 40 mg/kg) was “HDT—Inactive”. For the same compound, the “comment (activity class)” value ([1]; hu38SB19 40.0 mg/kg/inj IV (total 160.0), highest dose tested, listed as hu38 DB19) was “not active”, the “T-C = tumor growth delay” value [1, 6] was 6.1 days and the “drug death (deaths/mice treated)” value [2, 6] was 0/6. For the same compound, the “BWC = body weight change” value [2, 6] was −2.1 (19).
